Experimental data: ChEMBL document CHEMBL1201862, “PubChem BioAssay data set” (2004)
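Protocol summary: plate cells (96-well), add compound at 5 concentrations, incubate 48 h, interpolate endpoints linearly. Abbreviation: GI50, concentration required for 50% inhibition of growth.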 Activity calls are given as the source filed them. Cut-off read from the data, not from the text of the source: active = GI50 up to about 1.1 µM and inactive = higher.

Legend:
Experiment in all cases: NCI tumour cell line growth inhibition, 48 h
[1] = test system: 786-0
[2] = test system: A498
[3] = test system: A549
[4] = test system: ACHN
[5] = test system: BT-549
[6] = test system: CAKI-1
[7] = test system: CCRF-CEM
[8] = test system: COLO 205
[9] = test system: DLD-1
[10] = test system: DMS-273
[11] = test system: DU-145
[12] = test system: EKVX
[13] = test system: HCT-116
[14] = test system: HCT-15
[15] = test system: HL-60
[16] = test system: HOP-18
[17] = test system: HOP-62
[18] = test system: HT-29
[19] = test system: Hs-578T
[20] = test system: IGROV-1
[21] = test system: K562
[22] = test system: KM-20L2
[23] = test system: LOX IMVI
[24] = test system: M14
[25] = test system: M19-MEL
[26] = test system: MCF7
[27] = test system: MDA-MB-231
[28] = test system: MDA-MB-435
[29] = test system: MDA-N
[30] = test system: MOLT-4
[31] = test system: NCI-H226
[32] = test system: NCI-H460
[33] = test system: OVCAR-3
[34] = test system: OVCAR-5
[35] = test system: PC-3
[36] = test system: RPMI-8226
[37] = test system: RXF 393
[38] = test system: SF-539
[39] = test system: SK-OV-3
[40] = test system: SN12C
[41] = test system: SNB-75
[42] = test system: SR
[43] = test system: SW-620
[44] = test system: T47D
[45] = test system: TK-10
[46] = test system: UACC-257
[47] = test system: UACC-62
[48] = test system: UO-31
[49] = test system: DMS-114
[50] = test system: HCC 2998
[51] = test system: KM12
[52] = test system: LXFL 529
[53] = test system: Malme-3M
[54] = test system: NCI-H23
[55] = test system: NCI-H522
[56] = test system: OVCAR-4
[57] = test system: OVCAR-8
[58] = test system: SF-268
[59] = test system: SF-295
[60] = test system: SK-MEL-28
[61] = test system: SK-MEL-2
[62] = test system: SK-MEL-5
[63] = test system: SNB-19
[64] = test system: SNB-78
[65] = test system: U-251

With `O=C1C=CN(C2OC(CO)C(O)C2O)C(=O)C1` (stereo not given) the GI50 [1] was 13.3 µM (inactive), the GI50 [2] was 867 µM (inactive) and the GI50 [3] was 17.8 µM (inactive). The GI50 [4] was 39.2 µM (inactive), the GI50 [5] was > 2.5 mM (inactive) and the GI50 [6] was 22.3 µM (inactive). For the same molecule, the GI50 [7] was 6.87 µM (inactive), the GI50 [8] was 27.1 µM (inactive) and the GI50 [9] was 24.6 µM (inactive). For the same molecule, the GI50 [10] was 1.73 mM (inactive), the GI50 [11] was 9.38 µM (inactive) and the GI50 [12] was > 2.5 mM (inactive). The GI50 [13] was 1.51 µM (inactive), the GI50 [14] was 17.9 µM and the GI50 [15] was 9.46 µM (inactive). For the same molecule, the GI50 [16] was 557 µM (inactive), the GI50 [17] was 36.3 µM (inactive) and the GI50 [18] was 32.3 µM (inactive). The GI50 [19] was 126 µM (inactive), the GI50 [20] was 223 µM (inactive) and the GI50 [21] was 1.58 µM (inactive). For the same molecule, the GI50 [22] was 67.3 µM (inactive), the GI50 [23] was 12 µM (inactive) and the GI50 [24] was 231 µM (inactive). For the same molecule, the GI50 [25] was 35.6 µM (inactive), the GI50 [26] was 7.76 µM (inactive) and the GI50 [27] was 363 µM (inactive). The GI50 [28] was 161 µM (inactive), the GI50 [29] was 62.5 µM (inactive) and the GI50 [30] was 8.34 µM (inactive). The GI50 [31] was 423 µM (inactive), the GI50 [32] was 0.942 µM (active) and the GI50 [33] was 692 µM (inactive). For the same molecule, the GI50 [34] was 1.35 mM (inactive), the GI50 [35] was 155 µM (inactive) and the GI50 [36] was 5.47 µM (inactive). For the same molecule, the GI50 [37] was 372 µM (inactive), the GI50 [38] was 91.6 µM (inactive) and the GI50 [39] was 1.32 mM (inactive). For the same molecule, the GI50 [40] was 10 µM (inactive), the GI50 [41] was 838 µM (inactive) and the GI50 [42] was 5.42 µM (inactive). For the same molecule, the GI50 [43] was 32.5 µM (inactive), the GI50 [44] was 173 µM (inactive) and the GI50 [45] was 2.21 mM (inactive). The GI50 [46] was 1.13 mM (inactive), the GI50 [47] was 50.4 µM (inactive) and the GI50 [48] was 29.7 µM (inactive).
In the case of `OC12c3ccccc3C1CCCCCCCCCC21OCCO1` (stereo not given), the GI50 [1] is reported as > 100 µM (inactive), the GI50 [2] is reported as > 100 µM (inactive) and the GI50 [3] is reported as > 100 µM (inactive). The GI50 [4] was > 100 µM (inactive), the GI50 [6] was > 100 µM (inactive) and the GI50 [7] was > 100 µM (inactive). For the same molecule, the GI50 [8] was > 100 µM (inactive), the GI50 [49] was > 100 µM (inactive) and the GI50 [10] was > 0.1 mM (inactive). For the same molecule, the GI50 [50] was > 100 µM (inactive), the GI50 [13] was > 100 µM (inactive) and the GI50 [14] was greater than 100 µM. The GI50 [16] was > 100 µM (inactive), the GI50 [17] was > 100 µM (inactive) and the GI50 [18] was > 100 µM (inactive). The GI50 [20] was > 100 µM (inactive), the GI50 [21] was > 100 µM (inactive) and the GI50 [22] was > 100 µM (inactive). For the same molecule, the GI50 [51] was > 100 µM (inactive), the GI50 [23] was > 100 µM (inactive) and the GI50 [52] was > 100 µM (inactive). For the same molecule, the GI50 [24] was > 100 µM (inactive), the GI50 [25] was > 100 µM (inactive) and the GI50 [30] was > 100 µM (inactive). The GI50 [53] was > 100 µM (inactive), the GI50 [31] was > 100 µM (inactive) and the GI50 [54] was > 100 µM (inactive). For the same molecule, the GI50 [32] was > 100 µM (inactive), the GI50 [55] was > 100 µM (inactive) and the GI50 [33] was > 100 µM (inactive). The GI50 [56] was > 100 µM (inactive), the GI50 [34] was > 0.1 mM (inactive) and the GI50 [57] was > 100 µM (inactive). For the same molecule, the GI50 [36] was > 100 µM (inactive), the GI50 [37] was > 100 µM (inactive) and the GI50 [58] was > 100 µM (inactive). For the same molecule, the GI50 [59] was > 100 µM (inactive), the GI50 [38] was > 100 µM (inactive) and the GI50 [60] was > 100 µM (inactive). For the same molecule, the GI50 [61] was > 100 µM (inactive), the GI50 [62] was > 100 µM (inactive) and the GI50 [39] was > 0.1 mM (inactive). The GI50 [40] was > 100 µM (inactive), the GI50 [63] was > 100 µM (inactive) and the GI50 [41] was > 100 µM (inactive). The GI50 [64] was > 100 µM (inactive), the GI50 [43] was > 100 µM (inactive) and the GI50 [45] was > 0.1 mM (inactive). The GI50 [65] was > 100 µM (inactive), the GI50 [46] was > 0.1 mM (inactive) and the GI50 [47] was > 100 µM (inactive). For the same molecule, the GI50 [48] was > 100 µM (inactive).
